These are literature values, as cited in patent publication US9751843B2, “Substituted uracils and use thereof” (Bayer Pharma Aktiengesellschaft, priority 2013, dated 2017).

The data set concerns chymase.
Where [1] appears, read: hamsters, myocardial infarction model.

Each structure is given as a SMILES string.

Turning to `CCOc1ccccc1CC1C(=O)N(C(=O)NC(c2ccc(C)cc2)c2ccc(C)cc2)C1Oc1ccc(C(=O)O)cc1` (stereo not drawn) [BCEAB], under “hamster, in vivo”, the chymase activity result is “reduced”. For the same molecule, under setting [1], the hemodynamics entry is “improved” and the mortality result was “reduced”.
